Test results published in PubChem BioAssay AID1259411 (Chemical Carcinogenesis Research Information System (CCRIS), 2018).
Active and inactive are the calls of the source. The rule behind the calls is not given here.

Test system: rodent carcinogenicity bioassays, tumor incidence
Test: CCRIS carcinogenicity studies
Method in brief: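 Archive of carcinogenicity, mutagenicity, tumor promotion and tumor inhibition results drawn from journals, NCI reports and other sources, expert-reviewed; covers 1985-2011 and is no longer updated.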

Cn1cc(-c2ccccc2)c(=O)c(-c2cccc(C(F)(F)F)c2)c1
carcinogen call (Species: Mouse, Strain/Sex: ICR/Female (60?/Group), Route: Oral, Dose: 0, 33, 100, 330 ppm (0; 4.0; 12.3; 34.5 mg/kg/day) of 97.2-97.8% fluridone in diet for 2 yr, study duration 2 yr, Dose: 0, 33, 100, 330 ppm (0; 4.0; 12.3; 34.5 mg/kg/day) of 97.2-97.8% fluridone in diet for 2 yr, study duration 2 yr): inactive; negative. (possible increased incidence of skin fibrosarcomas in high dose femal
carcinogen call (Species: Mouse, Strain/Sex: ICR/Male (60?/Group), Route: Oral, Dose: 0, 33, 100, 330 ppm (0; 3.5; 10.9; 30.7 mg/kg/day) of 97.2-97.8% fluridone in diet for 2 yr, study duration 2 yr, Dose: 0, 33, 100, 330 ppm (0; 3.5; 10.9; 30.7 mg/kg/day) of 97.2-97.8% fluridone in diet for 2 yr, study duration 2 yr): inactive; negative
carcinogen call (Species: Rat, Strain/Sex: Fischer 344/Female (60/Group), Route: Oral, Dose: 0, 200, 650, 2000 ppm of 97.2-97.8% fluridone in diet for 2 yr, study duration 2 yr, Dose: 0, 200, 650, 2000 ppm of 97.2-97.8% fluridone in diet for 2 yr, study duration 2 yr): inactive; negative
carcinogen call (Species: Rat, Strain/Sex: Fischer 344/Male (60/Group), Route: Oral, Dose: 0, 200, 650, 2000 ppm of 97.2-97.8% fluridone in diet for 2 yr, study duration 2 yr, Dose: 0, 200, 650, 2000 ppm of 97.2-97.8% fluridone in diet for 2 yr, study duration 2 yr): inactive; negative

NNC(N)=O
carcinogen call (Species: MOUSE, Strain/Sex: SWISS/FEMALE, Route: ORAL, Dose: 0.0625% IN DRINKING WATER FOR LIFE, Tumor Site: Type of Lesion: BLOOD VESSELS: ANGIOMA, ANGIOSARCOMA, LUNG): active; positive
carcinogen call (Species: RAT, Strain/Sex: STRAIN-CD/FEMALE, Route: ORAL, Dose: 500, 1000 PPM IN DIET FOR 78 WK (LOW DOSE) OR 32 WK (HIGH DOSE)): inactive; negative

CC(C)Nc1nc(Cl)nc(NCC(=O)O)n1
carcinogen call (Species: Mouse, Strain/Sex: Crl:CD-1(ICR)BR/Female, Route: Oral, Dose: 0, 10, 30, 300, 900 ppm in diet for 18 mo, Dose: 0, 10, 30, 300, 900 ppm in diet for 18 mo): inactive; negative
carcinogen call (Species: Mouse, Strain/Sex: Crl:CD-1(ICR)BR/Male, Route: Oral, Dose: 0, 10, 30, 300, 900 ppm in diet for 18 mo, Dose: 0, 10, 30, 300, 900 ppm in diet for 18 mo, Tumor Site: Type of Lesion: Liver: Multiple hepatocellular adenomas (3/60 at 900 ppm vs. 0/60 in controls) Blood Vessels: Hemangiosarcomas (2/60 at): active; positive (only at highest dose)
carcinogen call (Species: Rat, Strain/Sex: Crl:CD BR/Female, Route: Oral, Dose: 0, 5, 15, 30, 300, 900 ppm in diet for 24 mo, Dose: 0, 5, 15, 30, 300, 900 ppm in diet for 24 mo): inactive; negative
carcinogen call (Species: Rat, Strain/Sex: Crl:CD BR/Male, Route: Oral, Dose: 0, 5, 15, 30, 300, 900 ppm in diet for 24 mo, Dose: 0, 5, 15, 30, 300, 900 ppm in diet for 24 mo, Tumor Site: Type of Lesion: Thyroid: Thyroid follicular cell adenoma): active; positive (at highest dose only); ca dpr describes as a possible adverse effect

Nc1nnc(-c2ccc([N+](=O)[O-])o2)s1
carcinogen call (Species: RAT, Route: ORAL, Tumor Site: Type of Lesion: MAMMARY GLAND): active; positive

Nc1ccccc1N
carcinogen call (Species: MOUSE, Route: ORAL, Tumor Site: Type of Lesion: LIVER): active; positive
carcinogen call (Species: RAT, Route: ORAL, Tumor Site: Type of Lesion: LIVER): active; positive

CCC(C)OC(OC(C)CC)C(=O)c1ccccc1 (stereo not drawn)
carcinogen call (Species: MOUSE, Strain/Sex: C3H/HEJ/MALE, Route: DERMAL, Dose: 0, 22.4 MG UNDILUTED 3/WK FOR LIFESPAN (STUDY DURATION: LIFESPAN)): inactive; negative

CC1=C(C)C(=O)C(C(CCCCCC(=O)O)c2ccccc2)=C(C)C1=O (stereo not drawn)
carcinogen call (Species: RAT, Strain/Sex: F344/FEMALE, Route: ORAL, Dose: 0, 3, 10, 30, 100 MG/KG/D IN THE DIET FOR 52 WK (STUDY DURATION: 52 WK), Dose: 0, 3, 10, 30, 100 MG/KG/D IN THE DIET FOR 52 WK (STUDY DURATION: 52 WK)): inactive; negative
carcinogen call (Species: RAT, Strain/Sex: F344/MALE, Route: ORAL, Dose: 0, 3, 10, 30, 100 MG/KG/D IN THE DIET FOR 52 WK (STUDY DURATION: 52 WK), Dose: 0, 3, 10, 30, 100 MG/KG/D IN THE DIET FOR 52 WK (STUDY DURATION: 52 WK)): inactive; negative

OCCCl
carcinogen call (Species: MOUSE, Strain/Sex: CD-1/FEMALE, Route: DERMAL, Dose: 0, 7.5, 15 MG/ANIMAL IN 70% ETHANOL IN WATER 5 D/WK FOR 104 WK, Dose: 0, 7.5, 15 MG/ANIMAL IN 70% ETHANOL IN WATER 5 D/WK FOR 104 WK): inactive; negative
carcinogen call (Species: MOUSE, Strain/Sex: CD-1/MALE, Route: DERMAL, Dose: 0, 7.5, 15 MG/ANIMAL IN 70% ETHANOL IN WATER 5 D/WK FOR 104 WK, Dose: 0, 7.5, 15 MG/ANIMAL IN 70% ETHANOL IN WATER 5 D/WK FOR 104 WK): inactive; negative
carcinogen call (Species: RAT, Strain/Sex: F344/FEMALE, Route: DERMAL, Dose: 0, 50, 100 MG/KG IN 70% ETHANOL IN WATER 5 D/WK FOR 103 WK, Dose: 0, 50, 100 MG/KG IN 70% ETHANOL IN WATER 5 D/WK FOR 103 WK): inactive; negative
carcinogen call (Species: RAT, Strain/Sex: F344/MALE, Route: DERMAL, Dose: 0, 50, 100 MG/KG IN 70% ETHANOL IN WATER 5 D/WK FOR 103 WK, Dose: 0, 50, 100 MG/KG IN 70% ETHANOL IN WATER 5 D/WK FOR 103 WK): inactive; negative

C=CCc1ccc(OC)c(OC)c1
carcinogen call (Species: MOUSE, Strain/Sex: B6C3F1/FEMALE, Route: GAVAGE, Dose: 0, 37, 75, 150 MG/KG BW IN 0.5% METHYLCELLULOSE 5 D/WK FOR 105 WK (STUDY DURATION: 105 WK), Dose: 0, 37, 75, 150 MG/KG BW IN 0.5% METHYLCELLULOSE 5 D/WK FOR 105 WK (STUDY DURATION: 105 WK), Tumor Site: Type of Lesion: LIVER: HEPATOCELLULAR ADENOMA, HEPATOCELLULAR CARCINOMA, HEPATOBLASTOMA): active; positive
carcinogen call (Species: MOUSE, Strain/Sex: B6C3F1/MALE, Route: GAVAGE, Dose: 0, 37, 75, 150 MG/KG BW IN 0.5% METHYLCELLULOSE 5 D/WK FOR 105 WK (STUDY DURATION: 105 WK), Dose: 0, 37, 75, 150 MG/KG BW IN 0.5% METHYLCELLULOSE 5 D/WK FOR 105 WK (STUDY DURATION: 105 WK), Tumor Site: Type of Lesion: LIVER: TUMOR): active; positive
carcinogen call (Species: RAT, Strain/Sex: F344/N/FEMALE, Route: GAVAGE, Dose: 0, 37, 75, 150 MG/KG BW IN 0.5% METHYLCELLULOSE 5D/WK FOR 105 WK (STUDY DURATION: 105 WK), Dose: 0, 37, 75, 150 MG/KG BW IN 0.5% METHYLCELLULOSE 5D/WK FOR 105 WK (STUDY DURATION: 105 WK), Tumor Site: Type of Lesion: LIVER: HEPATOCELLULAR ADENOMA OR CARCINOMA, GLANDULAR STOMACH: BENIGN OR MALIGNANT NEUROENDOCRINE TUMOR): active; positive
carcinogen call (Species: RAT, Strain/Sex: F344/N/FEMALE, Route: GAVAGE, Dose: 0, 300 MG/KG BW IN 0.5% METHYLCELLULOSE 5D/WK FOR 52 WK (STUDY DURATION: 105 WK), Tumor Site: Type of Lesion: ADRENAL MEDULLA: BENIGN PHEOCHROMOCYTOMA, LIVER: HEPATOCELLULAR ADENOMA OR CARCINOMA, HEPATOCHOLANGIOMA OR HEPATOCHOLANG): active; positive
carcinogen call (Species: RAT, Strain/Sex: F344/N/MALE, Route: GAVAGE, Dose: 0, 37, 75, 150 MG/KG BW IN 0.5% METHYLCELLULOSE 5 D/WK FOR 105 WK (STUDY DURATION: 105 WK), Dose: 0, 37, 75, 150 MG/KG BW IN 0.5% METHYLCELLULOSE 5 D/WK FOR 105 WK (STUDY DURATION: 105 WK), Tumor Site: Type of Lesion: LIVER: HEPATOCELLULAR ADENOMA OR CARCINOMA, GLANDULAR STOMACH: MALIGNANT NEUROENDOCRINE TUMOR, KIDNEY: ADENOMA, MAMMARY, Tumor Site: Type of Lesion: LIVER: HEPATOCELLULAR ADENOMA OR CARCINOMA, GLANDULAR STOMACH: MALIGNANT NEUROENDOCRINE TUMOR, KIDNEY: ADENOMA, MAMMARY): active; positive
carcinogen call (Species: RAT, Strain/Sex: F344/N/MALE, Route: GAVAGE, Dose: 0, 300 MG/KG BW IN 0.5% METHYLCELLULOSE 5 D/WK FOR 52 WK (STUDY DURATION: 105 WK), Tumor Site: Type of Lesion: KIDNEY: RENAL TUBULE ADENOMA OR CARCINOMA, LIVER: HEPATOCELLULAR ADENOMA OR CARCINOMA, HEPATOCHOLANGIOMA OR HEPATOCHOLAN): active; positive

NNC(=O)c1cccnc1
carcinogen call (Species: MOUSE, Strain/Sex: SWISS/FEMALE, Route: ORAL, Dose: 0, 0.125% IN DRINKING WATER FOR LIFE, STUDY DURATION: 100-110 WK, Dose: 0, 0.125% IN DRINKING WATER FOR LIFE, STUDY DURATION: 100-110 WK, Tumor Site: Type of Lesion: LUNG: ADENOMA, ADENOMA OR ADENOCARCINOMA): active; positive
carcinogen call (Species: MOUSE, Strain/Sex: SWISS/MALE, Route: ORAL, Dose: 0, 0.125% IN DRINKING WATER FOR LIFE, STUDY DURATION: 90-100 WK, Dose: 0, 0.125% IN DRINKING WATER FOR LIFE, STUDY DURATION: 90-100 WK, Tumor Site: Type of Lesion: LUNG: ADENOMA OR ADENOCARCINOMA): active; positive
